Where two headings read alike, the source gives them in different places.
Legend:
[1] = target: T1, Recombinant human PKC-theta (His-tagged 362-706) (Homo sapiens, UniProt Q04759); assay: PKC-theta inhibition assay (HTRF KinEASE kit); assay type: biochemical; details: ATP 6.5 μM, STK substrate 525 nM
T1 construct: Recombinant human PKC-theta (His-tagged 362-706); His
Description: PKC-theta and PKC-delta biochemical activities were measured using the PKC-theta HTRF KinEASEkit kit, according to manufacturer's instructions (Cisbio, catalogue number 61ST1PEJ). Briefly, the kinase buffer component of the kit was supplemented with 10 mM MgCl2, 1 mM DTT and 0.1% Tween 20. […] The streptavidin_XL665 and STK antibody-cryptate detection reagents were mixed according to the manufacturer's instructions. Test compounds were diluted in DMSO in a series of 10 semi-log step doses; 10 nL of each compound dose were dispensed in 384 well plates. […] The reaction was started by addition of the substrate and ATP and incubated at 25° C. for 30 minutes or 20 minutes for the PKC-theta and PKC-delta assays, respectively. The detection reagents were added, and the plate was incubated in the dark for 2 hours. […] The ratio of acceptor and donor emission signals was calculated for each well. Percent inhibition values were calculated from the HTRF ratios at different doses and fitted to a 4-parameter logistic curve to determine IC50 values (see Table 2).

[2] = test system: IL-2 secretion by human effector memory T cells (TEM); assay: Effector memory T cells IL-2 release assay (CD3/CD28 stimulation, HTRF IL-2 detection); assay type: cell-based; details: Homo sapiens, T-cell, 24 h
Description: Test compound-mediated inhibition of NFκB signalling in T cells was assessed by quantification of the IL-2 secretion by human effector memory T cells (TEM) upon treatment and stimulation. Human TEM cells were isolated from buffy coats of healthy donors obtained from the French blood bank.
Finally, 10 doses of test compound, originally prepared in DMSO by serial semi-log step dilution, were also added to cells in triplicate wells. Final DMSO concentration in wells was 0.1% in a total volume of 100 μL complete medium. Plates were incubated for 24 h at 37° C. in 5% CO2 atmosphere. After incubation, cell suspensions were centrifuged at 400×g and culture supernatants were recovered and stored at −80° C. […] IL-2 levels were determined in cell supernatants using an HTRF human IL-2 detection kit (Cisbio, cat #62HIL02PEH).

[3] = target: T2, Recombinant human PKC-delta (His-tagged 345-676) (Homo sapiens, UniProt Q05655); assay: PKC-delta inhibition assay (HTRF KinEASE kit); assay type: biochemical; details: ratio, PKC-theta vs PKC-delta HTRF; for PKC-theta/PKC-delta selectivity (binned): binned A to G
T2 construct: PKC-delta (His-tagged 345-676); His
T2 sequence (Q05655 345-676): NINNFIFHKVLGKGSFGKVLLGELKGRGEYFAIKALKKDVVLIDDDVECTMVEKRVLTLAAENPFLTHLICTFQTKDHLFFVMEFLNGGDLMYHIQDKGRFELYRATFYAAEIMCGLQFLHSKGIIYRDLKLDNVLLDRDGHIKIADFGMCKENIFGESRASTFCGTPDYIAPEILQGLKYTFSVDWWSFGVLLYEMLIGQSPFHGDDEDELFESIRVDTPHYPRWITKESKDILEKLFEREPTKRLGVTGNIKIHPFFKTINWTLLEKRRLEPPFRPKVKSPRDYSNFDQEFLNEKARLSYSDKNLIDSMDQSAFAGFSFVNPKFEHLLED

[4] = binned A to H, read-out: PKC-theta HTRF pIC50 (binned) (converted)
[5] = read-out: PKC-theta HTRF pIC50 (converted)
[6] = binned A to G, read-out: PKC-theta IL2 pIC50 (binned) (converted)
[7] = read-out: PKC-theta IL2 pIC50 (converted)

T1 sequence (Q04759 362-706): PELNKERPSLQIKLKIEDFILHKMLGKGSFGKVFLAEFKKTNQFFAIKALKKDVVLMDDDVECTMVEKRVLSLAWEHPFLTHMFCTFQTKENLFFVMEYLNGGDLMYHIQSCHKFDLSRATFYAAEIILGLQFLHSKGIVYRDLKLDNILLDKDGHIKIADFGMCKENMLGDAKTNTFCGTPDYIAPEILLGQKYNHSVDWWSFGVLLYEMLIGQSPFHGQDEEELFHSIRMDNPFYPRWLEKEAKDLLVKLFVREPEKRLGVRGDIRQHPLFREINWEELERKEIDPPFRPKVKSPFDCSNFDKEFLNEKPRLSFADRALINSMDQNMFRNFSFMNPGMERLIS

Compound	IC50 [1, 4]	IC50 [1, 5]	IC50 [2, 6]	IC50 [2, 7]	PKC-theta/PKC-delta selectivity [3]	PKC-theta/PKC-delta selectivity (binned) [3]
CC[C@@]1(C)C(=O)Nc2nccc(-c3cc(Cl)cc(N4CCNC[C@H]4C)n3)c21 (single isomer, unassigned) [Example 164]	1 to 3.16 nM	2 nM	10 to 31.6 nM	12.6 nM	5	F (a ratio of between 1 and 5)
CC1(F)CNCCN(c2cc(Cl)cc(-c3ccnc4c3[C@](C)(O)C(=O)N4)n2)C1 (single isomer, unassigned) [Example 92]	3.16 to 10 nM	7.94 nM	100 to 316 nM	200 nM	6	E (a ratio of between 5 and 10)
C[C@@]1(O)C(=O)Nc2nccc(-c3cc(C(F)(F)F)cc(N4CCNC5CC54)n3)c21 (single isomer, unassigned) [Example 96]	3.16 to 10 nM	5.01 nM	100 to 316 nM	200 nM	10	E (a ratio of between 5 and 10)
CC1(C)C(=O)Nc2nccc(-c3cccc(N4CCNCC4)c3Cl)c21 [Example 48]	> 1000 nM	1580 nM	> 1000 nM	10000 nM	1	G (a ratio of 0 to 1)
CC1(C)C(=O)Nc2nccc(-c3cc(C(F)(F)F)cc(N4CCNC5(CC5)C4)n3)c21 [Example 84]	3.16 to 10 nM	7.94 nM	316 to 1000 nM	316 nM	14	D (a ratio of between 10 and 20)
CC1(C)C(=O)Nc2nccc(-c3cccc(C4(CN)COC4)c3)c21 [Example 44]	100 to 316 nM	200 nM	> 1000 nM	10000 nM	4	F (a ratio of between 1 and 5)
CC[C@@]1(O)C(=O)Nc2nccc(-c3cc(Cl)cc(N4CCN[C@@H](C)C4)n3)c21 (single isomer, unassigned) [Example 162]	100 to 316 nM	316 nM	316 to 1000 nM	794 nM	33	B (a ratio of between 30 and 50)
O=C1Nc2nccc(-c3cc(F)cc(N4CCNCC4)c3)c2C12CCCC2 [Example 36]	10 to 31.6 nM	20 nM	100 to 316 nM	251 nM	1	F (a ratio of between 1 and 5)
C[C@@H]1CN(c2cc(C(F)(F)F)cc(-c3ccnc4c3C(C)(C)C(=O)N4)n2)CCCN1 [Example 186]	3.16 to 10 nM	6.31 nM	31.6 to 100 nM	50.1 nM	22	C (a ratio of between 20 and 30)
C[C@@]1(O)C(=O)Nc2nccc(-c3cc(C(F)(F)F)cc(N4CCNC(CC(F)(F)F)C4)n3)c21 (stereo partly shown) [Example 125]	10 to 31.6 nM	15.8 nM	316 to 1000 nM	398 nM	13	D (a ratio of between 10 and 20)
O=c1[nH]c2nccc(-c3ccnc(N4CCNCC4)c3)c2[nH]1 [Example 13]	316 to 1000 nM	398 nM	> 1000 nM	10000 nM	–	–
C[C@H]1CN(c2cc(Cl)cc(-c3ccnc4c3C(C)(O)C(=O)N4)n2)CCN1 (stereo partly shown) [Example 74]	–	–	–	–	12	D (a ratio of between 10 and 20)
CC[C@@]1(C)C(=O)Nc2nccc(-c3cc(Cl)cc(N4CCN[C@@H](C)C4)n3)c21 (single isomer, unassigned) [Example 170]	3.16 to 10 nM	6.31 nM	100 to 316 nM	100 nM	–	–

Reference: patent publication US20260035367A1 (Celgene Corporation, priority 2021, published 2026)
